According to the supplement of paper PMC13380429:

Key:
Conditions in all cases: 72 h
Vero E6 [1] = assay: relative viability EC50 (midpoint between 100% and the lowest measured viability); higher = less toxic
Caco-2 [2] = assay: as above
U2OS [3] = assay: as above
Calu-3 [4] = assay: cell viability relative to DMSO; higher = less toxic
Vero E6 [5] = assay: as above
HepG2 [6] = assay: as above
Caco-2 [7] = assay: as above
U2OS [8] = assay: as above
Calu-3 [9] = assay: drug sensitivity score (DSS) for viability; higher = more toxic; extreme values may be limits of the assay
Vero E6 [10] = assay: as above
HepG2 [11] = assay: as above
Caco-2 [12] = assay: as above
U2OS [13] = assay: as above
HepG2 [14] = assay: relative viability EC50 (midpoint between 100% and the lowest measured viability); higher = less toxic
Calu-3 [15] = assay: as above

Structure (SMILES)	relative viability EC50 (Vero E6 [1])	relative viability EC50 (Caco-2 [2])	relative viability EC50 (U2OS [3])	cell viability (Calu-3 [4]; 1 nM)	cell viability (Calu-3 [4]; 10 nM)	cell viability (Calu-3 [4]; 100 nM)	cell viability (Calu-3 [4]; 1000 nM)	cell viability (Calu-3 [4]; 10000 nM)	cell viability (Vero E6 [5]; 1 nM)	cell viability (Vero E6 [5]; 10 nM)	cell viability (Vero E6 [5]; 100 nM)	cell viability (Vero E6 [5]; 1000 nM)	cell viability (Vero E6 [5]; 10000 nM)	cell viability (HepG2 [6]; 1 nM)	cell viability (HepG2 [6]; 10 nM)	cell viability (HepG2 [6]; 100 nM)	cell viability (HepG2 [6]; 1000 nM)	cell viability (HepG2 [6]; 10000 nM)	cell viability (Caco-2 [7]; 1 nM)	cell viability (Caco-2 [7]; 10 nM)	cell viability (Caco-2 [7]; 100 nM)	cell viability (Caco-2 [7]; 1000 nM)	cell viability (Caco-2 [7]; 10000 nM)	cell viability (U2OS [8]; 1 nM)	cell viability (U2OS [8]; 10 nM)	cell viability (U2OS [8]; 100 nM)	cell viability (U2OS [8]; 1000 nM)	cell viability (U2OS [8]; 10000 nM)	drug sensitivity score (Calu-3 [9])	drug sensitivity score (Vero E6 [10])	drug sensitivity score (HepG2 [11])	drug sensitivity score (Caco-2 [12])	drug sensitivity score (U2OS [13])	relative viability EC50 (HepG2 [14])	relative viability EC50 (Calu-3 [15])
CCc1cccc(CC)c1NC(=O)N1Cc2[nH]nc(NC(=O)c3ccc(N4CCN(C)CC4)cc3)c2C1	> 10 µM	> 10 µM	2.22 µM	99.1%	93.4%	87.6%	95%	63%	96.9%	97.5%	96.9%	95.9%	89.3%	102%	97.5%	93.9%	70.5%	58.3%	101%	104%	98.7%	91.8%	76.8%	102%	97.8%	95.4%	93.1%	40%	2.6	0	5.9	1.7	4.4	–	–
Cl/C=C\C[N+]12CN3CN(CN(C3)C1)C2 [1-((Z)-3-chloroallyl)-1,3,5,7-tetraazaadamantan-1-ium]	> 10 µM	> 10 µM	> 10 µM	–	–	–	–	–	99.5%	99%	99.4%	95.5%	104%	102%	104%	109%	102%	97.7%	96.3%	97.9%	91.5%	97.4%	95.8%	94.5%	99.8%	94.7%	102%	97.5%	–	0	0	0	0	> 10 µM	–
C[C@]12CC[C@H]3[C@@H](CCC4=CC(=O)CC[C@@]43C)[C@@H]1CC[C@@H]2O [TESTOSTERONE]	> 10 µM	–	> 10 µM	95.2%	99.1%	102%	95.3%	92.3%	97.6%	103%	98.7%	108%	87.9%	81%	91.7%	104%	104%	95.1%	104%	97.6%	70.8%	72.6%	79.9%	102%	92.4%	98.7%	100%	94.6%	0	0	0	8.9	0	> 10 µM	> 10 µM
O=C1[C@H](CC[C@H](O)c2ccc(F)cc2)[C@@H](c2ccc(O)cc2)N1c1ccc(F)cc1 [ezetimibe]	> 10 µM	> 10 µM	> 10 µM	–	–	–	–	–	99.6%	106%	100%	100%	107%	103%	96.6%	100%	90.8%	88.8%	97.6%	98.1%	93.3%	95.9%	88.9%	95.9%	101%	95.8%	104%	91%	–	0	0.2	0	0	> 10 µM	–
COc1cc2ncnc(Nc3ccc(Cl)cc3F)c2cc1OC	0.434 µM	–	> 10 µM	96.2%	103%	90.2%	61.1%	22.6%	100%	99.2%	87.7%	66.8%	48.6%	99.1%	107%	89.4%	109%	87.1%	91.1%	91.6%	88.6%	81.5%	62.4%	97.3%	98.5%	99.4%	96.3%	84.1%	9	7.4	0	4.7	0.7	> 10 µM	0.903 µM
O=NN(CCCl)C(=O)NC1CCCCC1 [lomustine]	> 10 µM	–	> 10 µM	87.1%	102%	88.9%	104%	96.1%	97.9%	99.1%	99.6%	92.4%	94.6%	102%	95%	99.2%	104%	98.7%	89.7%	78.5%	101%	93.2%	59%	98.5%	97.1%	97.5%	102%	94%	0	0	0	3.2	0	> 10 µM	> 10 µM
